Test results reported in patent US20040024024A1, “Aromatic sulfone hydroxamates and their use as protease inhibitors” (priority 2001, published 2004).

Legend:
Assay in all cases: In vitro MMP inhibition, Ki determination (fluorogenic substrate II)
Assay type in all cases: biochemical
Settings in all cases: value in parentheses
Human recombinant MMP-13 = target: T1, Human recombinant MMP-13 (Homo sapiens, UniProt P45452)
T1 construct: made in house; host or cells: baculovirus / insect cells
Method in brief: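 Baculovirus-expressed proenzyme, APMA-activated; 4 μM fluorogenic MCA/Dpa peptide substrate (II), at or below Km, in Tris buffer pH 7.5 with CaCl2, 1 hr at room temperature. Fluorescence at 330/420 nm; Ki from non-linear regression with Morrison's equation, not corrected for substrate.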

Human recombinant MMP-1 = target: T2, Human recombinant MMP-1 (Homo sapiens, UniProt P03956)
T2 construct: made in house; host or cells: MMP-1-transfected HT-1080 cells (spent media)
T2 sequence (P03956 100-469): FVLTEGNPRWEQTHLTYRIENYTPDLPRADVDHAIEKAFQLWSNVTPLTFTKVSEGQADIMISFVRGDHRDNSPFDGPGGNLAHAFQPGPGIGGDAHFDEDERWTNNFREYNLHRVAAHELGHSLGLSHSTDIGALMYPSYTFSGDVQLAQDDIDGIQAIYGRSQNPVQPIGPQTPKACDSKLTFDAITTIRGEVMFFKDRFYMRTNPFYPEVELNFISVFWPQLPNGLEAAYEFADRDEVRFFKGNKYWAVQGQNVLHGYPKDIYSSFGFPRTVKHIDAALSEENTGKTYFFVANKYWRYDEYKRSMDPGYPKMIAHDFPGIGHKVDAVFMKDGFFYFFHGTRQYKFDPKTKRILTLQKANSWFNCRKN
Method in brief: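 Activated human recombinant MMP-1 (APMA- or trypsin-activated; proenzyme from transfected HT-1080 cells) incubated 1 hr at room temperature with 4 μM MCA/Dpa fluorogenic substrate II at or below Km in Tris buffer pH 7.5 with CaCl2. Fluorescence ex 330/em 420 nm; Ki from Morrison-equation non-linear regression, uncorrected for substrate.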

Human recombinant MMP-14 = target: T3, Human recombinant MMP-14 (Homo sapiens, UniProt P50281)
T3 construct: The catalytic domain enzyme was expressed in E. coli inclusion bodies, solubilized in urea; made in house
Method in brief: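 Refolded E. coli-expressed MMP-14 catalytic domain, APMA- or trypsin-activated, incubated 1 h at room temperature with 4 μM fluorogenic substrate II in pH 7.5 Tris/NaCl/CaCl2 buffer; fluorescence read at 330/420 nm. Ki from Morrison-equation non-linear regression, substrate at or below Km, uncorrected for substrate.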

| SMILES | Ki (Human recombinant MMP-13) [µM] | Ki (Human recombinant MMP-1) [µM] | Ki (Human recombinant MMP-14) [µM] |
| --- | --- | --- | --- |
| O=C(NO)C1(S(=O)(=O)c2ccc(OCCCc3cccc(-c4ccc5c(c4)OCCO5)c3)cc2)CCOCC1 [Example 627] | 0.0409 | > 10 | > 10 |
| O=C(NO)C1(S(=O)(=O)c2ccc(OCCCc3cccc(-c4ccc5c(c4)OCO5)c3)cc2)CCOCC1 [Example 628] | 0.0198 | > 10 | > 10 |
| O=C(NO)C1(S(=O)(=O)c2ccc(OCCCc3cccc(-c4ccc5ccccc5c4)c3)cc2)CCOCC1 [Example 629] | 0.0891 | > 10 | > 10 |
| O=C(NO)C1(S(=O)(=O)c2ccc(OCCCc3cccc(-c4ccc(F)cc4F)c3)cc2)CCOCC1 [Example 630] | 0.00602 | > 10 | > 10 |
| O=C(NO)C1(S(=O)(=O)c2ccc(OCCCc3cccc(-c4csc5ccccc45)c3)cc2)CCOCC1 [Example 631] | 0.0576 | > 10 | > 10 |
| O=C(NO)C1(S(=O)(=O)c2ccc(OCCCc3cccc(-c4ccsc4)c3)cc2)CCOCC1 [Example 632] | 0.00654 | > 10 | > 10 |
| O=C(NO)C1(S(=O)(=O)c2ccc(OCCCc3cccc(-c4cc5ccccc5s4)c3)cc2)CCOCC1 [Example 633] | 0.0924 | > 10 | > 10 |
| O=C(NO)C1(S(=O)(=O)c2ccc(OCCCc3cccc(-c4coc5ccccc45)c3)cc2)CCOCC1 [Example 634] | 0.0194 | > 10 | > 10 |
| C=Cc1ccc(-c2cccc(CCCOc3ccc(S(=O)(=O)C4(C(=O)NO)CCOCC4)cc3)c2)cc1 [Example 635] | 0.0262 | > 10 | > 10 |
| O=C(NO)C1(S(=O)(=O)c2ccc(OCCCc3cccc(-c4ccccc4O)c3)cc2)CCOCC1 [Example 636] | 0.00321 | > 10 | > 10 |
| O=C(NO)C1(S(=O)(=O)c2ccc(OCCCc3cccc(-c4ccoc4)c3)cc2)CCOCC1 [Example 637] | 0.00463 | > 10 | > 10 |
| O=C(NO)C1(S(=O)(=O)c2ccc(OCCCc3cccc(-c4cccc5ccccc45)c3)cc2)CCOCC1 [Example 638] | 0.0681 | > 10 | > 10 |
| Cc1ccc(-c2cccc(CCCOc3ccc(S(=O)(=O)C4(C(=O)NO)CCOCC4)cc3)c2)s1 [Example 639] | 0.0125 | > 10 | > 10 |
